Peptide text beside a SMILES is read from it.
Key:
Assay type in all cases: cell-based
[1] = system: Erwinia amylovora PMV6076; assay: Antibacterial activity (MIC), growth inhibition in microtiter plates; details: Trypticase Soy Broth, 25 °C, 48 h, OD 600 nm (Bioscreen C), peptides at 3.1, 6.2, 12.5, 25, 50 μM, three replicates, experiment repeated twice, MIC = lowest concentration with no growth
Method: (§1) The antibacterial activity of the designed cyclic peptides was assayed against P. syringae pv. syringae, X. axonopodis pv. vesicatoria, and E. amylovora at 3.1, 6.2, 12.5, 25, and 50 μM. Peptides BPC194 and BPC198 were also included in these assays for comparison purposes.
(§2) The following plant pathogenic bacterial strains were used: Erwinia amylovora PMV6076 (Institut National de la Recherche Agronomique, Angers, France); Pseudomonas syringae pv. syringae EPS94 (Institut de Tecnologia Agroalimentària, Universitat de Girona, Spain); and Xanthomonas axonopodis pv. vesicatoria 2133-2 (Instituto Valenciano de Investigaciones Agrarias, Valencia, Spain). All bacteria were stored in Luria Bertani (LB) broth supplemented with glycerol (20%) and maintained at –80 °C. E. amylovora and P. syringae pv. syringae were scrapped from LB agar after growing for 24 h and X. axonopodis pv. vesicatoria after growing for 48 h at 25 °C. The cell material was suspended in sterile water to obtain a suspension of 10^8 CFU mL^−1.
(§3) Lyophilized peptides were solubilized in sterile Milli-Q water to a final concentration of 1000 μM and sterilized through a 0.22-μm pore filter. For MIC assessment, dilutions of the synthetic peptides were made to obtain a final concentration of 500, 250, 125, 62.5, 31.2, and 15.6 μM. Twenty microlitres of each dilution were mixed in a microtiter plate well with 20 μL of the corresponding suspension of the bacterial indicator and 160 μL of Trypticase Soy Broth (TSB) (BioMèrieux, Craponne, France) to a total volume of 200 μL. Three replicates for each strain, peptide, and concentration were used. Positive controls contained water instead of peptide and negative controls contained peptides without bacterial suspension. Bacterial growth was automatically determined by an optical density measurement at 600 nm (Bioscreen C, Labsystem, Helsinki, Finland). Microplates were incubated at 25 °C with 20 s shaking before hourly absorbance measurements for 48 h. Each experiment was repeated twice. The MIC was taken as the lowest peptide concentration with no growth at the end of the experiment. The inhibition of growth (I) was calculated as a percentage of the positive control using the equation: I = 100 × [(AC − AS)/AC], where AC is the area under the curve of the control, and AS is the area under the curve of a given peptide concentration.

[2] = system: Xanthomonas axonopodis pv. vesicatoria 2133-2; details: Trypticase Soy Broth, 25 °C, 48 h, OD 600 nm (Bioscreen C), peptides at 3.1, 6.2, 12.5, 25, 50 μM, three replicates, experiment repeated twice, MIC = lowest concentration with no growth
Method: as §1, §2, §3

[3] = system: Pseudomonas syringae pv. syringae EPS94; details: 48 h
Method: as §1, §2, §3

Structure (SMILES)	MIC Intervals, Ea [1]	MIC Intervals, Xav [2]	MIC Intervals, Pss [3]
CC(C)C[C@@H]1NC(=O)[C@H](CCCCN)NC(=O)[C@H](CCCCN)NC(=O)[C@H](CCC(N)=O)NC(=O)[C@H](Cc2ccccc2)NC(=O)[C@H](CCCCN)NC(=O)[C@H](CCCCN)NC(=O)[C@H](CC(C)C)NC(=O)[C@H](CCCCN)NC(=O)[C@H](CCCCN)NC1=O [BPC490] (cyclo(FQKKLKKLKK))	12.5 to 25 µM	3.1 to 6.2 µM	
CC(C)C[C@@H]1NC(=O)[C@H](CCCCN)NC(=O)[C@H](CCCCN)NC(=O)[C@H](CCC(N)=O)NC(=O)[C@H](CC(C)C)NC(=O)[C@H](CCCCN)NC(=O)[C@H](CCCCN)NC(=O)[C@H](Cc2ccccc2)NC(=O)[C@H](CCCCN)NC(=O)[C@H](CCCCN)NC1=O [BPC194, c(KKLKKFKKLQ)] (cyclo(FKKLQKKLKK))	6.2 to 12.5 µM	3.1 to 6.2 µM	3.1 to 6.2 µM
CC(C)C[C@@H]1NC(=O)[C@H](CCCCN)NC(=O)[C@H](CCC(N)=O)NC(=O)[C@H](Cc2ccccc2)NC(=O)[C@H](CCCCN)NC(=O)[C@H](CC(C)C)NC(=O)[C@H](CCCCN)NC(=O)[C@H](CCCCN)NC(=O)[C@H](CCCCN)NC(=O)[C@H](CCCCN)NC1=O [BPC488] (cyclo(FQKLKKKKLK))	>50 µM	6.2 to 12.5 µM	
CC(C)C[C@@H]1NC(=O)[C@H](CCC(N)=O)NC(=O)[C@H](CC(C)C)NC(=O)[C@H](CCCCN)NC(=O)[C@H](CCCCN)NC(=O)[C@H](CCCCN)NC(=O)[C@H](CCCCN)NC(=O)[C@H](Cc2ccccc2)NC(=O)[C@H](CCCCN)NC(=O)[C@H](CCCCN)NC1=O [BPC496] (cyclo(FKKKKLQLKK))	>50 µM	6.2 to 12.5 µM	6.2 to 12.5 µM
CC(C)C[C@@H]1NC(=O)[C@H](CCC(N)=O)NC(=O)[C@H](CC(C)C)NC(=O)[C@H](Cc2ccccc2)NC(=O)[C@H](CCCCN)NC(=O)[C@H](CCCCN)NC(=O)[C@H](CCCCN)NC(=O)[C@H](CCCCN)NC(=O)[C@H](CCCCN)NC(=O)[C@H](CCCCN)NC1=O [BPC484] (cyclo(FLQLKKKKKK))	>50 µM	25 to 50 µM	12.5 to 25 µM
CC(C)C[C@@H]1NC(=O)[C@H](CCC(N)=O)NC(=O)[C@H](CCCCN)NC(=O)[C@H](CCCCN)NC(=O)[C@H](CC(C)C)NC(=O)[C@H](Cc2ccccc2)NC(=O)[C@H](CCCCN)NC(=O)[C@H](CCCCN)NC(=O)[C@H](CCCCN)NC(=O)[C@H](CCCCN)NC1=O [BPC494] (cyclo(FLKKQLKKKK))	>50 µM	6.2 to 12.5 µM	6.2 to 12.5 µM
CC(C)C[C@@H]1NC(=O)[C@H](CCCCN)NC(=O)[C@H](CCCCN)NC(=O)[C@H](CCCCN)NC(=O)[C@H](Cc2ccccc2)NC(=O)[C@H](CCCCN)NC(=O)[C@H](CCC(N)=O)NC(=O)[C@H](CC(C)C)NC(=O)[C@H](CCCCN)NC(=O)[C@H](CCCCN)NC1=O [BPC918] (cyclo(FKKKLKKLQK))	12.5 to 25 µM	1.6 to 3.1 µM	
CC(C)C[C@@H]1NC(=O)[C@H](CCCCN)NC(=O)[C@H](CCC(N)=O)NC(=O)[C@H](CCCCN)NC(=O)[C@H](CCCCN)NC(=O)[C@H](CC(C)C)NC(=O)[C@H](Cc2ccccc2)NC(=O)[C@H](CCCCN)NC(=O)[C@H](CCCCN)NC(=O)[C@H](CCCCN)NC1=O [BPC914] (cyclo(FLKKQKLKKK))	>50 µM	12.5 to 25 µM	12.5 to 25 µM
CC(C)C[C@@H]1NC(=O)[C@H](CCCCN)NC(=O)[C@H](CCCCN)NC(=O)[C@H](CCCCN)NC(=O)[C@H](CC(C)C)NC(=O)[C@H](CCCCN)NC(=O)[C@H](CCC(N)=O)NC(=O)[C@H](Cc2ccccc2)NC(=O)[C@H](CCCCN)NC(=O)[C@H](CCCCN)NC1=O [BPC924] (cyclo(FQKLKKKLKK))	12.5 to 25 µM	1.6 to 3.1 µM	
CC(C)C[C@@H]1NC(=O)[C@H](CCCCN)NC(=O)[C@H](CCC(N)=O)NC(=O)[C@H](CC(C)C)NC(=O)[C@H](CCCCN)NC(=O)[C@H](Cc2ccccc2)NC(=O)[C@H](CCCCN)NC(=O)[C@H](CCCCN)NC(=O)[C@H](CCCCN)NC(=O)[C@H](CCCCN)NC1=O [BPC482] (cyclo(FKLQKLKKKK))	>50 µM	6.2 to 12.5 µM	
CC(C)C[C@@H]1NC(=O)[C@H](CCCCN)NC(=O)[C@H](CCCCN)NC(=O)[C@H](CCCCN)NC(=O)[C@H](CCCCN)NC(=O)[C@H](CC(C)C)NC(=O)[C@H](CCCCN)NC(=O)[C@H](Cc2ccccc2)NC(=O)[C@H](CCCCN)NC(=O)[C@H](CCC(N)=O)NC1=O [BPC922] (cyclo(FKLKKKKLQK))	>50 µM	12.5 to 25 µM	12.5 to 25 µM
CC(C)C[C@@H]1NC(=O)[C@H](CCCCN)NC(=O)[C@H](CCCCN)NC(=O)[C@H](CCCCN)NC(=O)[C@H](CCCCN)NC(=O)[C@H](Cc2ccccc2)NC(=O)[C@H](CCCCN)NC(=O)[C@H](CC(C)C)NC(=O)[C@H](CCCCN)NC(=O)[C@H](CCC(N)=O)NC1=O [BPC916] (cyclo(FKKKKLQKLK))	>50 µM	12.5 to 25 µM	6.2 to 12.5 µM
CC(C)C[C@@H]1NC(=O)[C@H](CCCCN)NC(=O)[C@H](CCCCN)NC(=O)[C@H](CCCCN)NC(=O)[C@H](Cc2ccccc2)NC(=O)[C@H](CC(C)C)NC(=O)[C@H](CCCCN)NC(=O)[C@H](CCCCN)NC(=O)[C@H](CCCCN)NC(=O)[C@H](CCC(N)=O)NC1=O [BPC480] (cyclo(FKKKLQKKKL))	>50 µM	12.5 to 25 µM	12.5 to 25 µM
CC(C)C[C@@H]1NC(=O)[C@H](CCCCN)NC(=O)[C@H](CCCCN)NC(=O)[C@H](CCCCN)NC(=O)[C@H](CCC(N)=O)NC(=O)[C@H](Cc2ccccc2)NC(=O)[C@H](CCCCN)NC(=O)[C@H](CCCCN)NC(=O)[C@H](CCCCN)NC(=O)[C@H](CC(C)C)NC1=O [BPC492] (cyclo(FQKKKLLKKK))	>50 µM	12.5 to 25 µM	12.5 to 25 µM
CC(C)C[C@@H]1NC(=O)[C@H](CCC(N)=O)NC(=O)[C@H](Cc2ccccc2)NC(=O)[C@H](CC(C)C)NC(=O)[C@H](CCCCN)NC(=O)[C@H](CCCCN)NC(=O)[C@H](CCCCN)NC(=O)[C@H](CCCCN)NC(=O)[C@H](CCCCN)NC(=O)[C@H](CCCCN)NC1=O [BPC486] (cyclo(FQLKKKKKKL))	>50 µM		12.5 to 25 µM
CC(C)C[C@@H]1NC(=O)[C@H](CCCCN)NC(=O)[C@H](CCCCN)NC(=O)[C@H](Cc2ccccc2)NC(=O)[C@H](CCCCN)NC(=O)[C@H](CCCCN)NC(=O)[C@H](CCCCN)NC(=O)[C@H](CC(C)C)NC(=O)[C@H](CCCCN)NC(=O)[C@H](CCC(N)=O)NC1=O [BPC198, c(KLKKKFKKLQ)] (cyclo(FKKLQKLKKK))	12.5 to 25 µM	3.1 to 6.2 µM	3.1 to 6.2 µM
CC(C)C[C@@H]1NC(=O)[C@H](CCCCN)NC(=O)[C@H](CCCCN)NC(=O)[C@H](CCCCN)NC(=O)[C@H](Cc2ccccc2)NC(=O)[C@H](CCCCN)NC(=O)[C@H](CCC(N)=O)NC(=O)[C@H](CCCCN)NC(=O)[C@H](CCCCN)NC(=O)[C@H](CC(C)C)NC1=O [BPC920] (cyclo(FKKKLLKKQK))	>50 µM	25 to 50 µM	12.5 to 25 µM
